Test results as given in ChEMBL document CHEMBL4622990, “Synthesis and Antitumor Activity of C-7-Alkynylated and Arylated Pyrrolotriazine C-Ribonucleosides” (ACS Med Chem Lett, 2020).
pIC50: −log10 of the molar value. Activity calls are given as the source filed them. The calls are words filed in the database; no cut-off is given here.

What was measured:
[1] = system: HEp-2; assay: Induction of DNA damage in human Hep2 cells assessed as gamma-H2AX positive cells at 10 uM after 24 hrs by DAPI staining based immunofluorescence analysis relative to control; assay type: functional
[2] = system: HEp-2; assay: Induction of DNA damage in human Hep2 cells assessed as gamma-H2AX positive cells at 100 uM after 24 hrs by DAPI staining based immunofluorescence analysis (reference value: 0.51%); assay type: functional
[3] = system: HEp-2; assay: Induction of DNA damage in human Hep2 cells assessed as gamma-H2AX positive cells at 1 uM after 24 hrs by DAPI staining based immunofluorescence analysis relative to control; assay type: functional
[4] = system: NCI-H460; assay: Antiproliferative activity against human NCI-H460 cells assessed as reduction in cell viability incubated for 72 hrs by IncuCyte live-cell imaging assay; assay type: functional, cell-based; details: NCI-H460, 72 h
[5] = system: K562; assay: Antiproliferative activity against human K562 cells assessed as reduction in cell viability incubated for 72 hrs by IncuCyte live-cell imaging assay; assay type: functional, cell-based; details: K562, 72 h
[6] = system: HL-60; assay: Antiproliferative activity against human HL60 cells assessed as reduction in cell viability incubated for 72 hrs by IncuCyte live-cell imaging assay; assay type: functional, cell-based; details: HL-60, 72 h
[7] = system: LN-229; assay: Antiproliferative activity against human LN229 cells assessed as reduction in cell viability incubated for 72 hrs by IncuCyte live-cell imaging assay; assay type: functional, cell-based; details: LN-229, 72 h
[8] = system: HCT-116; assay: Antiproliferative activity against human HCT116 cells assessed as reduction in cell viability incubated for 72 hrs by IncuCyte live-cell imaging assay; assay type: functional, cell-based; details: HCT-116, 72 h
[9] = system: Z-138; assay: Antiproliferative activity against human Z138 cells assessed as reduction in cell viability incubated for 72 hrs by IncuCyte live-cell imaging assay; assay type: functional, cell-based; details: Z-138, 72 h
[10] = system: CAPAN-1; assay: Antiproliferative activity against human Capan1 cells assessed as reduction in cell viability incubated for 72 hrs by IncuCyte live-cell imaging assay; assay type: functional, cell-based; details: CAPAN-1, 72 h
[11] = Antiproliferative activity against human DND41 cells assessed as reduction in cell viability incubated for 72 hrs by IncuCyte live-cell imaging assay; assay type: functional, cell-based; details: DND41, 72 h
[12] = system: Salmon testes DNA; assay: Binding affinity to salmon sperm DNA assessed as DNA intercalation at 20 uM incubated for 20 mins by acridine orange orange dye based fluorescence polarization assay; assay type: nucleic-acid assay; details: Salmonidae
[13] = system: PBMC; assay: Induction of apoptosis in human PBMC assessed as caspase 3/7 activation at 0.0064 to 100 uM incubated for 72 hrs and measured at 3 hrs interval by IncuCyte Caspase 3/7 Green reagent based assay; assay type: cell-based
[14] = biological target: Tubulin (Homo sapiens) (UniProt P68371+Q9H4B7+P0DPH7+P68366+Q13509+Q71U36+P04350+Q3ZCM7+P07437+P68363+Q9BQE3+Q6PEY2+Q13885+Q9BVA1+Q9BUF5); assay: Inhibition of tubulin polymerization in human Hep2 cells at 100 uM after 3 hrs by DAPI-staining based fluorescence microscopic assay; assay type: cell-based; details: HEp-2
[15] = system: HEp-2; assay: Induction of DNA damage in human Hep2 cells assessed as increase in gamma-H2AX positive cells after 24 hrs by DAPI staining based immunofluorescence analysis; assay type: functional, cell-based
[16] = system: CAPAN-1; assay: Induction of apoptosis in human Capan1 cells assessed as increase in apoptotic cells incubated for 72 hrs and measured at 3 hrs interval by IncuCyte Caspase 3/7 Green reagent based assay; assay type: functional, cell-based
[17] = system: PBMC; assay: Induction of apoptosis in human PBMC assessed as caspase 3/7 activation incubated for 72 hrs and measured at 3 hrs interval by IncuCyte Caspase 3/7 Green reagent based assay; assay type: cell-based

Row | SMILES | Activity [1] [%] | Activity [2] [%] | Activity [3] [%] | pIC50 [4] | pIC50 [5] | pIC50 [6] | pIC50 [7] | pIC50 [8] | pIC50 [9] | pIC50 [10] | pIC50 [11] | Activity [12] | Activity [13] | inhibition [14] | Activity [15] | Activity [16] | pIC50 [17]
1 | COc1cc([C@@H]2c3cc4c(cc3[C@@H](O[C@@H]3O[C@@H]5CO[C@@H](C)O[C@H]5[C@H](O)[C@H]3O)[C@H]3COC(=O)[C@H]23)OCO4)cc(OC)c1O [ETOPOSIDE] | 89.89 | 89.31 | 1.66 |  |  |  |  |  |  |  |  |  |  |  |  |  | 
2 | CC(=O)O[C@@]12CO[C@@H]1C[C@H](O)[C@@]1(C)C(=O)[C@H](O)C3=C(C)[C@@H](OC(=O)[C@H](O)[C@@H](NC(=O)OC(C)(C)C)c4ccccc4)C[C@@](O)([C@@H](OC(=O)c4ccccc4)[C@H]21)C3(C)C [DOCETAXEL ANHYDROUS] |  |  |  | 8.40 | 8.05 | 7.30 | 8.70 | 8.15 | 8.40 | 7.60 | 8.30 |  |  |  |  |  | 
3 | CN[C@@H]1C[C@H]2O[C@@](C)([C@@H]1OC)n1c3ccccc3c3c4c(c5c6ccccc6n2c5c31)C(=O)NC4 [STAUROSPORINE] |  |  |  | 7.22 | 7.40 | 7.40 |  | 7.40 |  |  |  |  |  |  |  |  | 
4 | Nc1ncnn2c([C@@H]3O[C@H](CO)[C@@H](O)[C@H]3O)cc(-c3ccsc3)c12 |  |  |  | 4.45 | 4.18 | 4.43 | 4.24 | 4.34 | 4.36 | 4.25 | 4.07 |  |  |  |  |  | 
5 | Nc1ncnn2c([C@@H]3O[C@H](CO)[C@@H](O)[C@H]3O)cc(/C=C/c3ccccc3)c12 | 0 | 0.22 | 0.05 | 5.43 | 5.51 | 5.70 | 5.41 | 5.32 | 5.89 | 5.59 | 5.77 | Active | Non-Toxic | Active | Dose-dependent effect |  | 
6 | Nc1ncnn2c([C@@H]3O[C@H](CO)[C@@H](O)[C@H]3O)cc(-c3ccccc3F)c12 |  |  |  | < 4.00 | < 4.00 | < 4.00 | < 4.00 | < 4.00 | 4.02 | < 4.00 | < 4.00 |  |  |  |  |  | 
7 | Nc1ncnn2c([C@@H]3O[C@H](CO)[C@@H](O)[C@H]3O)cc(C#Cc3ccc(F)cc3)c12 |  |  |  | 4.10 | < 4.00 | < 4.00 | < 4.00 | < 4.00 | 4.05 | 4.26 | < 4.00 |  |  |  |  |  | 
8 | COc1ccc(-c2cc([C@@H]3O[C@H](CO)[C@@H](O)[C@H]3O)n3ncnc(N)c23)cc1 |  |  |  | 4.16 | 4.12 | < 4.00 | 4.39 | 4.33 | 4.20 | 4.36 | 4.38 |  |  |  |  |  | 
9 | CCCCC#Cc1cc([C@@H]2O[C@H](CO)[C@@H](O)[C@H]2O)n2ncnc(N)c12 | 0.35 | 1.57 | 0.31 | 5.77 | 5.62 | 6.40 | 6.00 | 5.54 | 6.70 | 6.00 | 6.40 | Active | Non-Toxic | Active | Dose-dependent effect | Active | 
10 | Nc1ncnn2c([C@@H]3O[C@H](CO)[C@@H](O)[C@H]3O)cc(-c3ccc(F)cc3)c12 |  |  |  | 4.26 | < 4.00 | 4.17 | 4.18 | 4.37 | < 4.00 | 4.18 | 4.41 |  |  |  |  |  | 
11 | Nc1ncnn2c([C@@H]3O[C@H](CO)[C@@H](O)[C@H]3O)cc(-c3ccc(Cl)cc3)c12 |  |  |  | 4.34 | 4.32 | 4.42 | 4.49 | 4.23 | 4.40 | 4.25 | 4.45 |  |  |  |  |  | 
12 | Nc1ncnn2c([C@@H]3O[C@H](CO)[C@@H](O)[C@H]3O)cc(C#CC3CC3)c12 | 5.2 | 16.22 | 3.22 | 7.10 | 7.40 | 7.40 | 7.52 | 7.30 | 7.70 | 7.70 | 7.40 | Active |  | Active | Dose-dependent effect | Active | 6.40 to 7.00
13 | Nc1ncnn2c([C@@H]3O[C@H](CO)[C@@H](O)[C@H]3O)cc(-c3ccc(F)cc3F)c12 |  |  |  | 4.03 | 4.16 | 4.00 | 4.36 | 4.23 | 4.23 | 4.29 | 4.17 |  |  |  |  |  | 
14 | CCCC#Cc1cc([C@@H]2O[C@H](CO)[C@@H](O)[C@H]2O)n2ncnc(N)c12 | 0.82 | 9.38 | 1.14 | 6.40 | 5.96 | 6.70 | 7.40 | 6.70 | 7.70 | 7.70 | 7.10 | Active |  | Active | Dose-dependent effect |  | 4.96 to 7.30
15 | Nc1ncnn2c([C@@H]3O[C@H](CO)[C@@H](O)[C@H]3O)cc(-c3ccccc3)c12 |  |  |  | < 4.00 | < 4.00 | < 4.00 | 4.12 | 4.08 | < 4.00 | 4.19 | < 4.00 |  |  |  |  |  | 
16 | Nc1ncnn2c([C@@H]3O[C@H](CO)[C@@H](O)[C@H]3O)cc(C#Cc3ccccc3)c12 |  |  |  | 4.41 | < 4.00 | < 4.00 | 4.06 | 4.33 | 4.38 | 4.42 | 4.20 |  |  |  |  |  | 
17 | Cc1ccccc1-c1cc([C@@H]2O[C@H](CO)[C@@H](O)[C@H]2O)n2ncnc(N)c12 |  |  |  | < 4.00 | < 4.00 | 4.32 | < 4.00 | < 4.00 | 4.18 | 4.01 | 4.03 |  |  |  |  |  | 
18 | Nc1ncnn2c([C@@H]3O[C@H](CO)[C@@H](O)[C@H]3O)cc(-c3ccoc3)c12 | 1.54 | 3.74 | 0.13 | 5.82 | 5.68 | 6.30 | 6.00 | 5.85 | 6.52 | 6.05 | 7.00 | Active | Non-Toxic | Active | Dose-dependent effect | Active | 
19 | Nc1ncnn2c([C@@H]3O[C@H](CO)[C@@H](O)[C@H]3O)cc(C#Cc3cccs3)c12 |  |  |  | 4.58 | < 4.00 | < 4.00 | < 4.00 | 4.18 | 4.30 | 4.49 | 4.48 |  |  |  |  |  | 
20 | Nc1ncnn2c([C@@H]3O[C@H](CO)[C@@H](O)[C@H]3O)cc(-c3ccccc3Cl)c12 |  |  |  | < 4.00 | < 4.00 | < 4.00 | < 4.00 | < 4.00 | 4.12 | 4.26 | 4.11 |  |  |  |  |  | 
